The values below come from US9562044B2, “2-acylaminothiazole derivative or salt thereof” (ASTELLAS PHARMA INC., priority 2013, dated 2017).

Where a name gives a salt, the structure may show the parent alone.

For one assay, the system named is isolated rat bladder. The assay can be described thus: Transmural electrical field stimulation-induced contraction of isolated rat bladder. The following applies: AUC of contractile response, value before treatment = 100%, SD female rat bladder strip, read-out: Enhancement rate of isolated bladder contraction (% of pre). On the procedure:
Effects on Transmural Electrical Field Stimulation-Induced Contraction of Isolated Rat Bladder
As an effect on the nerve stimulation-dependent bladder contraction in vitro, the effect of the Example compound of the present invention in the transmural electrical field stimulation-induced contraction of isolated rat bladder was measured by the following method. That is, from the bladder isolated from a Spraque-Dawley (SD) female rat (Japan SLC, Inc.), a longitudinal bladder strip having a width of about 2 mm and a length of about 10 mm was prepared. The prepared bladder strip was suspended in an organ bath filled with 10 mL of a Krebs-Henseleit solution. The Krebs-Henseleit solution was bubbled with 95% O2 and 5% CO2, and kept at 37° C. After stabilization at an initial tension of 1 g, contraction was induced twice with 60 mM KCl. The strip was washed with the Krebs-Henseleit solution and stabilized, and then contraction was induced with transmural electrical field stimulation at 20 V (stimulation frequency of 8 Hz, pulse width of 0.3 msec, and stimulation time of 10 seconds) by an electrical stimulation device (Nihon Kohden Corporation). At an interval of 2 minutes, transmural electrical field stimulation was repeated and the voltage was adjusted to make the contractile amplitude about 50% of the contractile response by 20 V. After stabilization of the contraction by the transmural electrical field stimulation, 10 μL of the test substance (final concentrations of 3 μM, 10 μM, and 30 μM), which had been dissolved in 100% dimethylsulfoxide in advance was added. The test substance was cumulatively administered at the next concentration after the contractile response at a lower concentration had been stabilized. The responses were put into a personal computer through PowerLab (registered trademark) (AD Instruments), and analyzed with LabChart (registered trademark) (AD Instruments). The area under the response of each contractile response (area under curve, AUC) was calculated and the value before the treatment with the test substance was set to 100%. Based on this, the enhancement rate of the isolated bladder contraction (% of pre) after the treatment with the test substance was calculated.
The enhancement rates of the isolated bladder contraction due to several 10 μM Example compounds which are the compounds of the formula (I) are shown in Table 2.

For assay [1], the system named is intravesical pressure in anesthetized rats. The experiment in a line: Pelvic nerve electrical stimulation-induced elevation of intravesical pressure in anesthetized rats. The following applies: 3 mg/kg intravenous; maximum effect during 1 hour after administration; pre-treatment AUC = 100%; SD female rats. The format is in vivo, rat. As to the method:
Effect on Pelvic Nerve Electrical Stimulation-Induced Elevation of Intravesical Pressure in Anesthetized Rats
As an effect on the nerve stimulation-dependent bladder contraction in vivo, the effect of the Example compound of the present invention in the pelvic nerve electrical stimulation-induced elevation of the intravesical pressure in rats was measured by the following method. That is, using SD female rats (Japan SLC, Inc.), the lower abdomen was incised in the midline under anesthesia with pentobarbital (50 mg/kg ip). The ureter on both sides was ligated and cut, and then a cannula for measuring the intravesical pressure (PE-50) was inserted into the bladder from the external urethral orifice and fixed by a clip. About 200 μL of physiological saline was injected through the cannula inserted into the bladder, the other side was then connected to a pressure transducer, and the intravesical pressure was measured. Under observation using a stereomicroscope, the pelvic nerve near the bladder was isolated and an electrode (Unique Medical) for nerve stimulation was placed. The abdominal cavity was filled with mineral oil (MP BIOMEDICALS). […] After the elevation of the intravesical pressure by electrical stimulation was stabilized three times or more, the test substance (dose of 3 mg/kg) was administered at a volume of 1 mL/kg from a catheter placed in the vein and the effect of the test substance on the elevation of the intravesical pressure was measured for 1 hour. […]
The responses were put into a personal computer through PowerLab (registered trademark) (AD Instruments), and analyzed with LabChart (registered trademark). The AUC of each elevation of the intravesical pressure was calculated. The average value of three values before the treatment with the test substance was set to 100%, and the elevation rate of the intravesical pressure (% of pre) after the treatment with the test substance was calculated. […]

Turning to `CC[C@@H]1CCCN1Cc1sc(NC(=O)c2cnc(N3CCC(C(=O)O)CC3)cn2)nc1-c1cc(F)cc(C(F)(F)F)c1` [Example 115], in the assay on isolated rat bladder, the activity at 10 µM came to 121%. For the same compound, in assay [1], the “Elevation rate of intravesical pressure (% of pre)” value (from here on “Elevation rate … (% of pre)”) is 131 % of pre.

For `CC[C@@H]1CCCN1Cc1sc(NC(=O)c2cnc(N3CCC(C(=O)O)CC3)cn2)nc1-c1ccc(OC)c(C(F)(F)F)c1` [Example 156], in the assay with isolated rat bladder, the activity at 10 µM turned out to be 135%. Further, the “Elevation rate … (% of pre)” value in assay [1] is listed as 130 % of pre.

As to `C[C@@H]1CCCN1Cc1sc(NC(=O)c2cnc(N3CCC(C(=O)O)CC3)cn2)nc1-c1cc(Cl)cs1` [Example 4, 1-(5-{[4-(4-chloro-2-thienyl)-5-{[(2R)-2-methylpyrrolidin-1-yl]methyl}-1,3-thiazol-2-yl]carbamoyl}pyrazin-2-yl)piperidine-4-carboxylic acid dihydrochloride], the activity at 10 µM in the assay with isolated rat bladder turned out to be 180%. Moreover, the “Elevation rate … (% of pre)” value in assay [1] was 184 % of pre.
